What was measured:
O-2A/OPCs [1] = assay: Clonal analysis of division and differentiation; assay type: cell-based, rat
Procedure: O-2A/OPCs purified from P7 rat optic nerve were plated in. poly-L-lysine-coated 25-cm^2 flasks at clonal density with DMBM medium in the presence of 10-ng/ml PDGF as previously described. After 24-h recovery, cells were treated with different toxicants, each for 3 d, until visual inspection and immunostaining was performed. NAC was added 1 h before exposure to other toxicants for NAC pretreatment, and NAC co-exists throughout the culture period. The numbers of O-2A/OPCs and oligodendrocytes in each clone were determined by counting under fluorescent microscope. […] Experiments were performed in triplicate in at least two independent experiments.

O-2A/OPCs [2] = assay: Intracellular ROS / redox state measurement; assay type: cell-based, rat; settings: O-2A/OPCs in PDGF; MeHg, exposure levels as low as 20 nM
Procedure: Cells were plated in 96-well microplates and grown to about 60% continence. […] Cells were then washed once with HBSS and growth medium to remove free probe. Then, fresh growth medium was added and a baseline fluorescence reading was taken prior to treatment. For NAC pre-treatment. […] Fluorescence was measured in a Wallac 1420 Victor2 multilabel counter (PerkinElmer) using excitation and emission wavelengths of 485 nm and 535 nm, respectively, at different time courses as indicated in the figures. Results are presented as the value change from baseline by the formula (Ftexp−Ftbase)/Ftbase normalized with the control group, where Ftexp=fluorescence at any given time during the experiment in a give well and Ftbase=baseline fluorescence of the same well.

PDGFRα mRNA = assay: PDGFRα mRNA, real-time RT-PCR; assay type: cell-based, rat; settings: MeHg exposure
Procedure: Total RNA was isolated using TRIZOL reagent (Inviirogen, Carlsbad, Calif., United States) according to the manufacturer's protocol. A total of 1 μg of RNA was subjected to reverse transcription using Superscript II (In vitrogen). The reactions were incubated at 42° C. for 50 min. The FAM-iabeled probe mixes for rat PDGFRα and Fyn, and the VIC-labeled GAPDH probe mix were purchased from Applied Biosystems (Foster City Calif., United States). For multiplex real-time PCR, reactions each containing 5 μl of 10-fold diluted reverse transcription product, 1 μl of interest gene probe mix. 1 μl of GAPDH probe mix, and 10 μl of TaqMan Universal PCR Master Mix were performed on an iCycler iQ multicolor real-time PCR system (Bio-Rad, Hercules, Calif., United States) and cycling condition was 50° C. for 2 min and 95° C. for 10 min, followed by 40 cycles of 95° C. for 15 sec and 60° C. for 1 min. Each sample was run in triplicate. Data were analyzed, by iCycler iQ software (Bio-Rad).

TrkC = assay type: cell-based, rat; settings: MeHg, Pb or paraquat
In short: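 Western blot of cell lysates or sonicated tissue in RAPI buffer, SDS-PAGE to PVDF, primary antibodies (phospho-Erk, phospho-Akt, receptor, phospho-tyrosine), HRP secondary and luminol detection. Signaling analysed in presence of the cognate ligand: EGF for EGFR, NT-3 for TrkC, HGF for c-Met.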

O-2A/OPCs [3] = assay: In vivo BrdU incorporation assay with Olig2 co-labeling, corpus callosum; parameters: species or system mice; settings: low-level MeHg in maternal drinking water, P14
Procedure: To analyze DNA synthesis in vivo, mice were injected with a single dose of 5-BrdU (50 mg/kg body weight), dissolved in 0.9% NaCl, filtered (0.2 μm), and applied intraperitoneally 2 h prior to perfusion. After removal and sectioning of brains, 40-μm free-floating sections were incubated for 2 h in 50% forraamide/2×SSC (0.3 M NaCl and 0.03 M sodium citrate) at 65° C., rinsed twice for 5 min each in 2×SSC, incubated for 30 min in 2N HCl at 37° C., and rinsed for 10 min in 0.1 M boric acid (pH 8.5) at room temperature. Several rinses in TBS were followed by incubation in TBS/0.1% Triton X-100/3% donkey serum (TBS-plus) for 30 min. Sections were then incubated with monoclonal rat anti-BrdU antibody (1:2,500; Harlan Sera-Lab, Loughborough, United Kingdom) and polyclonal rabbit anti-Olig2 in TBS-plus for 48 h at 4° C. […]
Quantification of BrdU+ cells was accomplished with unbiased counting methods by confocal microscopy. BrdU immunoreaetive nuclei were counted in one focal plane to avoid over-sampling. In corpus callosum, BrdU+ cells were counted in every sixth section (40 μm) from a coronal, series between interaural AP+5.2 mm and AP+3.0 mm in the entire extension of the rostral and medial part of the corpus callosum. Quantitative data are presented as mean percentage normalized to control animals. […]

MDA-MB-231 cell = MDA-MB-231 cell division by BrdU incorporation; assay type: cell-based; settings: NAC 1 mM or PP1 200 nM with 20 μM tamoxifen, 48 hours
Procedure: It has been reported that c-Cbl induced down-regulation of EGFR is disabled in cancer cells (Hirsch DS, Shen. Y, Wu WJ, (2006) Cancer Res. Apr 1;66(7):3523-30). Thus, growth and motility inhibition of breast cancer cells by EGFR degradation is correlated with inaetivation of Cdc42. […] Cells were cultured in phenol red-free growth media and exposed to TMX (0, 1 μM, 10 μM, 20 μM and 50 μM) for 48 hours, with or without 1 mM NAC. In FIG. 22C. MDA-MB-231 cell division was analyzed by BrdU incorporation analysis. […] Percentage of Brdu+ cells from DAPI+ cells was determined in each sample.

Fyn = assay type: cell-based, rat

Compound	clone composition (cell division at the clonal level) (O-2A/OPCs [1]; MeHg exposure, PDGF)	cells more oxidized (intracellular redox state) (O-2A/OPCs [2])	levels of PDGFRα mRNA (PDGFRα mRNA)	levels of TrkC after toxicant exposure (TrkC)	reduction in the number of total BrdU+ cells (O-2A/OPCs [3]) [%]	effect on MeHg-induced suppression of cell division at the clonal level (O-2A/OPCs [1]; co-exposure with MeHg, 1 mM NAC or PP1)	rescue from tamoxifen effect on cell division (MDA-MB-231 cell)	effect on EtOH-induced Fyn phosphorylation (Fyn; co-exposure to NAC)	effect on Aβ-induced increase in phosphorylated Fyn (Fyn; co-exposure with Aβ)
[CH3][Hg][Cl] [MeHg, methylmercury]	reduction in the number of large clones and an increase in the number of small clones	approximately 20%	did not have any significant effects	no reduction in levels of TrkC	20				
CC(=O)N[C@@H](CS)C(=O)O [NAC, N-acetyl-L-cysteine]						blocked	did not result in any rescue effect	blocked	reversed

Source: US20080171710A1, “The Redox/Fyn/c-Cbl Pathway” (priority 2007, published 2008)
